Measurements from ChEMBL document CHEMBL1139280, “Potent inhibitors of HCV-NS3 protease derived from boronic acids” (Bioorg Med Chem Lett, 2009).

Tests used:
[1] = Inhibition of HCV NS3 protease assessed as hydrolysis of chromogenic 4-phenylazophenyl ester from peptide fragment Ac-DTEDVVP(Nva)-O-4-PAP by spectrophotometry; design: species or system Hepacivirus hominis
Hepatitis C virus = assay: Inhibition of HCV subgenomic RNAs replication in human hepatoma cells; format: functional, Hepacivirus hominis

Row | Ki [1] [nM] | EC90 (Hepatitis C virus) [µM] | SMILES
1 | 10 | > 5 | CC(C)(C)NC(=O)N[C@H](C(=O)N1C[C@H]2[C@@H](C1C(=O)N[C@@H](CC1CCC1)B1O[C@@H]3C[C@@H]4C[C@@H](C4(C)C)[C@]3(C)O1)C2(C)C)C(C)(C)C (stereo partly drawn)
2 | 52 | > 5 | CC[C@H](NC(=O)[C@@H]1[C@@H]2[C@H](CN1C(=O)[C@@H](NC(=O)N[C@H](CN(C)S(C)(=O)=O)C(C)(C)C)C(C)(C)C)C2(C)C)B(O)O
3 | 0.2 | > 5 | CN(C[C@@H](NC(=O)N[C@H](C(=O)N1C[C@H]2[C@@H]([C@H]1C(=O)N[C@@H](CC1CCC1)B(O)O)C2(C)C)C(C)(C)C)C(C)(C)C)S(C)(=O)=O
4 | 10 | > 5 | CC[C@H](NC(=O)[C@@H]1[C@@H]2[C@H](CN1C(=O)[C@@H](NC(=O)NC(C)(C)C)C(C)(C)C)C2(C)C)B(O)O
5 | 380 | > 5 | CC[C@H](NC(=O)C1[C@@H]2[C@H](CN1C(=O)[C@@H](NC(=O)NC(C)(C)C)C(C)(C)C)C2(C)C)B1O[C@@H]2C[C@@H]3C[C@@H](C3(C)C)[C@]2(C)O1 (stereo partly drawn)
6 | 500 | > 5 | CC[C@H](NC(=O)[C@@H]1[C@@H]2[C@H](CN1C(=O)[C@@H](NC(=O)NC(C)(C)C)C(C)(C)C)C2(C)C)B1O[C@@H]2C[C@@H]3C[C@@H](C3(C)C)[C@]2(C)O1
7 | 0.5 | > 5 | CN(C[C@@H](NC(=O)N[C@H](C(=O)N1C[C@H]2[C@@H]([C@H]1C(=O)N[C@@H](CC1CCC1)B1O[C@@H]3C[C@@H]4C[C@@H](C4(C)C)[C@]3(C)O1)C2(C)C)C(C)(C)C)C(C)(C)C)S(C)(=O)=O
8 | 34 | > 5 | CC[C@H](NC(=O)[C@@H]1[C@@H]2[C@H](CN1C(=O)[C@@H](NC(=O)N[C@H](CN(C)S(C)(=O)=O)C(C)(C)C)C(C)(C)C)C2(C)C)B1O[C@@H]2C[C@@H]3C[C@@H](C3(C)C)[C@]2(C)O1
9 | 14 | 0.35 | CC(C)(C)NC(=O)N[C@H](C(=O)N1C[C@H]2[C@@H]([C@H]1C(=O)NC(CC1CCC1)C(=O)C(N)=O)C2(C)C)C(C)(C)C (stereo partly drawn) [BOCEPREVIR]
